{"source": "patent US20060018827A1", "about": "“Positron therapy of inflammation, infection and disease” (priority 2004, published 2006)", "key": {"[1]": {"conditions": "70 Kg person, cited from earlier work"}, "[2]": {"assay": "Human Maximum Tolerated Dose (MTD) of ^18F-FDG, organ dosimetry calculation", "conditions": "for 5 Ci FDG Organ dose / 7.5 Ci FDG Organ dose / MTD FDG (calculated MTD of ^18F-FDG for the organ): 70 Kg person", "experimental": "The dose-limiting organ for therapy with ^18F-FDG is the bone marrow. The activity of ^18F-FDG that will deliver doses of 200 rad to the red marrow (less than 5% damage in 5 years) (Early and Sodee, 1995) and also 300 rad were calculated using the Medical Internal Radionuclide Dosimetry formalism. A dose of 300 rad was considered because it causes acceptable and manageable hematologic toxicity in selected patients (Early and Sodee, 1995). The subsequent doses delivered to ^18F-FDG-avid tumors were calculated.\nHuman Maximum Tolerated Dose (MTD) of ^18F-FDG. Table 1 indicates the radiation dose (Column 2) to each organ (Column 1) from 1mCi of ^18F-FDG for a 70 Kg person. The tolerated radiation dose of each organ (5% complications in 5 years) is described in Table 1, Column 3. The MTD of ^18F-FDG for each organ is described in Table 1, Column 4. The smallest value in this column is 4.88 Ci, which is the MTD of ^18F-FDG for a 70 Kg person, delivering 200 cGy to the ovaries. This is the critical organ for female patients; however, female patients with metastatic cancer have usually undergone chemotherapy causing ovarian failure or may choose to accept ovarian failure as a side effect of therapy. If ovarian function is not a consideration, then the critical organ is the bone marrow for both male and female patients. A dose of 5.00 Ci of ^18F-FDG would deliver 200 cGy to the bone marrow of a 70 Kg person."}}, "note": "Like-named read-outs stand apart in the source and are kept apart here.", "data": [{"smiles": "O=C[C@H]([18F])[C@@H](O)[C@H](O)[C@H](O)CO", "note": "[^18F-FDG, ^18F-2-deoxy-2-fluoro-D-glucose]", "values": [{"measurement": "Radiation dose to organ from 1 mCi ^18F-FDG", "setting": "[1]; Bone marrow", "result": 0.04, "unit": "cGy/mCi"}, {"measurement": "Radiation dose to organ from 1 mCi ^18F-FDG", "setting": "[1]; Brain", "result": 0.17, "unit": "cGy/mCi"}, {"measurement": "Radiation dose to organ from 1 mCi ^18F-FDG", "setting": "[1]; Heart wall", "result": 0.25, "unit": "cGy/mCi"}, {"measurement": "Radiation dose to organ from 1 mCi ^18F-FDG", "setting": "[1]; Kidneys", "result": 0.078, "unit": "cGy/mCi"}, {"measurement": "Radiation dose to organ from 1 mCi ^18F-FDG", "setting": "[1]; Liver", "result": 0.088, "unit": "cGy/mCi"}, {"measurement": "Radiation dose to organ from 1 mCi ^18F-FDG", "setting": "[1]; Lungs", "result": 0.056, "unit": "cGy/mCi"}, {"measurement": "Radiation dose to organ from 1 mCi ^18F-FDG", "setting": "[1]; Ovaries", "result": 0.041, "unit": "cGy/mCi"}, {"measurement": "Radiation dose to organ from 1 mCi ^18F-FDG", "setting": "[1]; Testes", "result": 0.041, "unit": "cGy/mCi"}, {"measurement": "Radiation dose to organ from 1 mCi ^18F-FDG", "setting": "[1]; Urinary bladder", "result": 0.27, "unit": "cGy/mCi"}, {"measurement": "5 Ci FDG Organ dose", "setting": "[2]; Bone marrow", "result": 200, "unit": "cGy"}, {"measurement": "7.5 Ci FDG Organ dose", "setting": "[2]; Bone marrow", "result": 300, "unit": "cGy"}, {"measurement": "5 Ci FDG Organ dose", "setting": "[2]; Brain", "result": 850, "unit": "cGy"}, {"measurement": "7.5 Ci FDG Organ dose", "setting": "[2]; Brain", "result": 1275, "unit": "cGy"}, {"measurement": "MTD FDG (calculated MTD of ^18F-FDG for the organ)", "setting": "[2]; Brain, organ MTD 4500 cGy (5% complications in 5 years)", "result": 26.47, "unit": "Ci"}, {"measurement": "5 Ci FDG Organ dose", "setting": "[2]; Heart wall", "result": 1250, "unit": "cGy"}, {"measurement": "7.5 Ci FDG Organ dose", "setting": "[2]; Heart wall", "result": 1875, "unit": "cGy"}, {"measurement": "MTD FDG (calculated MTD of ^18F-FDG for the organ)", "setting": "[2]; Heart wall, organ MTD 4000 cGy (5% complications in 5 years)", "result": 16.00, "unit": "Ci"}, {"measurement": "5 Ci FDG Organ dose", "setting": "[2]; Kidneys", "result": 390, "unit": "cGy"}, {"measurement": "7.5 Ci FDG Organ dose", "setting": "[2]; Kidneys", "result": 585, "unit": "cGy"}, {"measurement": "MTD FDG (calculated MTD of ^18F-FDG for the organ)", "setting": "[2]; Kidneys, organ MTD 2300 cGy (5% complications in 5 years)", "result": 29.49, "unit": "Ci"}, {"measurement": "5 Ci FDG Organ dose", "setting": "[2]; Liver", "result": 440, "unit": "cGy"}, {"measurement": "7.5 Ci FDG Organ dose", "setting": "[2]; Liver", "result": 660, "unit": "cGy"}, {"measurement": "MTD FDG (calculated MTD of ^18F-FDG for the organ)", "setting": "[2]; Liver, organ MTD 3000 cGy (5% complications in 5 years)", "result": 34.09, "unit": "Ci"}, {"measurement": "5 Ci FDG Organ dose", "setting": "[2]; Lungs", "result": 280, "unit": "cGy"}, {"measurement": "7.5 Ci FDG Organ dose", "setting": "[2]; Lungs", "result": 420, "unit": "cGy"}, {"measurement": "MTD FDG (calculated MTD of ^18F-FDG for the organ)", "setting": "[2]; Lungs, organ MTD 6500 cGy (5% complications in 5 years)", "result": 116.07, "unit": "Ci"}, {"measurement": "5 Ci FDG Organ dose", "setting": "[2]; Ovaries", "result": 205, "unit": "cGy"}, {"measurement": "7.5 Ci FDG Organ dose", "setting": "[2]; Ovaries", "result": 308, "unit": "cGy"}, {"measurement": "MTD FDG (calculated MTD of ^18F-FDG for the organ)", "setting": "[2]; Ovaries, organ MTD 200 cGy (5% complications in 5 years)", "result": 4.88, "unit": "Ci"}, {"measurement": "5 Ci FDG Organ dose", "setting": "[2]; Testes", "result": 205, "unit": "cGy"}, {"measurement": "7.5 Ci FDG Organ dose", "setting": "[2]; Testes", "result": 308, "unit": "cGy"}, {"measurement": "MTD FDG (calculated MTD of ^18F-FDG for the organ)", "setting": "[2]; Testes, organ MTD 500 cGy (5% complications in 5 years)", "result": 12.20, "unit": "Ci"}, {"measurement": "5 Ci FDG Organ dose", "setting": "[2]; Urinary bladder", "result": 1350, "unit": "cGy"}, {"measurement": "7.5 Ci FDG Organ dose", "setting": "[2]; Urinary bladder", "result": 2025, "unit": "cGy"}, {"measurement": "MTD FDG (calculated MTD of ^18F-FDG for the organ)", "setting": "[2]; Urinary bladder, organ MTD 6500 cGy (5% complications in 5 years)", "result": 24.07, "unit": "Ci"}, {"measurement": "dose to the brain", "setting": "[2]; administered dose of 7.50 Ci", "result": 1275, "unit": "rad"}]}]}
